Assays:
[1] = tested on: H146 cells; assay: H146 cell viability using MTT assay; type: cell-based; conditions: Homo sapiens, NCI-H146, 48 h exposure
Outline: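 IC50 comes from four-parameter fits of optical density at 540 nm. Readout used 4 h MTT reduction followed by overnight SDS/HCl solubilisation, after 48 h compound exposure across nine 3.16-fold dilutions in triplicate. Culture medium was RPMI 1640 with 10% heat-inactivated FBS, antibiotics and L-glutamine.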

[2] = biological target: GST(1-218)-(FACTOR_XA)-hsBCLXL(2-209) (Homo sapiens (Human), UniProt Q07817); assay: Fluorescence polarisation assay; type: binding
Sequence of GST(1-218)-(FACTOR_XA)-hsBCLXL(2-209) (Q07817 other isoform, or with tags, fused parts or gaps): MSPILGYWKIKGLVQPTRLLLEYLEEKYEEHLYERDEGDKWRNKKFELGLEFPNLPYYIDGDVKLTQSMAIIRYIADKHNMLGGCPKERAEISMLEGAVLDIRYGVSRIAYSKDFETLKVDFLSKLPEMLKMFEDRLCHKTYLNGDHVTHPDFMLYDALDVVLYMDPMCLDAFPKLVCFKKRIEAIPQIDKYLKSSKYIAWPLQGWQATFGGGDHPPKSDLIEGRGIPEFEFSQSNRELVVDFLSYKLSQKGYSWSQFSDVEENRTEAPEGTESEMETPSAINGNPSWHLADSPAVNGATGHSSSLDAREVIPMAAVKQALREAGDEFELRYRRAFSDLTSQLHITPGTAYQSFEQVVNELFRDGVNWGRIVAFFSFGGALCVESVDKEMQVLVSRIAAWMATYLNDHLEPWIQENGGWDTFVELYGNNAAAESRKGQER
Experimental: Fluorescence polarization measures the rotation of a fluorescing species in solution, the larger the molecule the more polarized the fluorescence emission.
(GST UniProtKB® primary accession number P08515 and BCLXL UniProtKB® primary accession number Q07817-1), • resulting in an increase in anisotropy. If a compound is added which competitively binds to the same site as the probe, thereby releasing it, anisotropy decreases due to the increased amount of free probe.
An 11-point serial dilution of each compound was prepared in DMSO, the final buffer conditions were 10 mM 4-(2-hydroxyethyl)-1-piperazineethanesulfonic acid [HEPES], 150 mM NaCl, 0.05% Tween 20, pH 7.4 and 5% DMSO. The final protein concentration in the assay was 20 nM with the fluorescent probe present at 10 nM. […] 1; 37 (WebServer issue): W441-W445.

[3] = tested on: MOLT-4 cells; assay: MOLT-4 cell viability using MTT assay; type: cell-based; conditions: Homo sapiens, MOLT-4, 48 h, 48 h exposure
Experimental: MTT colorimetric assay is based on the mitochondrial reduction of tetrazolium salt by living cells.
Cells were cultured at 37° C. in a humidified atmosphere containing 5% CO2. […] At the end of incubation time, 15 μL of MTT solution (5 mg/ml) were added per well and the cells were incubated for another 4 h. […] IC50s were calculated using standard four-parametric curve fitting.

[4] = biological target: His-His-(EK)-hsBCLXL(2-197)[N197C] (Homo sapiens (Human), UniProt Q07817, N197C); assay: Fluorescence quenching assay; type: binding; conditions: 1 nM Cy5-labelled protein, 400 nM PUMA peptide, 2 hours at 23° C.; KI determined from IC50
Sequence of His-His-(EK)-hsBCLXL(2-197)[N197C] (Q07817 2-197 N197C): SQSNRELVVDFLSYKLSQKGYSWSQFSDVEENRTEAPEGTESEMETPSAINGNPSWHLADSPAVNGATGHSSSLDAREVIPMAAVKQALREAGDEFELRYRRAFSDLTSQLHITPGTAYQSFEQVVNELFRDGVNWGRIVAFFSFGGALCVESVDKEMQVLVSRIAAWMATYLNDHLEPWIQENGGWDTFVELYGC
Outline: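 Ki values converted from IC50s, measured as fluorescence increase (Ex 620/Em 680 nm) after 2 h at 23° C. Compounds were titrated over 11 points against 1 nM Cy5-BCL-xL and 400 nM quencher-tagged PUMA peptide in pH 7.4 HEPES (10 mM), 150 mM NaCl, 0.05% Tween 20, 5% DMSO.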

SMILES	IC50 [1] [nM]	Ki [2] [nM]	IC50 [3] [nM]	Ki [4] [pM]
CNCC#Cc1ccc(OCCCc2sc(N3CCCc4c3nnc(Nc3nc5ccccc5s3)c4C)nc2C(=O)O)c(F)c1 [Example 32, 2-{3-[(1,3-Benzothiazol-2-yl)amino]-4-methyl-5H,6H,7H,8H-pyrido[2,3-c]pyridazin-8-yl}-5-(3-{2-fluoro-4-[3-(methylamino)prop-1-yn-1-yl]phenoxy}propyl)-1,3-thiazole-4-carboxylic acid]	–	< 1	0.987	4.6
Cc1c(Nc2nc3ccccc3s2)nnc2c1CCCN2c1nc(C(=O)O)c(CCCOc2ccc(CCCN(C)C)cc2F)s1 [Example 36, 2-{3-[(1,3-Benzothiazol-2-yl)amino]-4-methyl-5H,6H,7H,8H-pyrido[2,3-c]pyridazin-8-yl}-5-(3-{4-[3-(dimethylamino)propyl]-2-fluorophenoxy}propyl)-1,3-thiazole-4-carboxylic acid]	5.51	< 1	–	1.7
Cc1c(Nc2nc3ccccc3s2)nnc2c1CCN2c1nc(C(=O)O)c(-c2cnn(CC34CC5CC(CC(C5)C3)C4)c2C)s1 [Example 13, 5-{1-[(Adamantan-1-yl)methyl]-5-methyl-1H-pyrazol-4-yl}-2-{3-[(1,3-benzothiazol-2-yl)amino]-4-methyl-5H,6H,7H-pyrrolo[2,3-c]pyridazin-7-yl}-1,3-thiazole-4-carboxylic acid]	790	9.2	126	–
O=C(O)c1nc(-n2ccc3cc(Nc4nc5ccccc5s4)nnc32)sc1CCCOc1ccccc1F [Example 9, 2-{3-[(1,3-Benzothiazol-2-yl)amino]-7H-pyrrolo[2,3-c]pyridazin-7-yl}-5-[3-(2-fluorophenoxy)propyl]-1,3-thiazole-4-carboxylic acid]	2340	13	–	–
O=C(O)c1csc(-n2ccc3cc(Nc4nc5ccccc5s4)ccc32)n1 [Example 2, 2-{5-[(1,3-Benzothiazol-2-yl)amino]-1H-indol-1-yl}-1,3-thiazole-4-carboxylic acid]	–	> 10000	–	–
O=C(O)c1csc(N2CCOc3cc(Nc4nc5ccccc5s4)ccc32)n1 [Example 4, 2-{7-[(1,3-Benzothiazol-2-yl)amino]-3,4-dihydro-2H-1,4-benzoxazin-4-yl}-1,3-thiazole-4-carboxylic acid]	–	> 10000	–	–
O=C(O)c1cccc(-n2ccc3cc(Nc4nc5ccccc5s4)ccc32)n1 [Example 5, 6-{5-[(1,3-Benzothiazol-2-yl)amino]-1H-indol-1-yl}pyridine-2-carboxylic acid]	–	> 10000	–	–
CC1Cc2cc(Nc3nc4ccccc4s3)nnc2N1c1nc(C(=O)O)cs1 (stereo not drawn) [Example 16, 2-{3-[(1,3-Benzothiazol-2-yl)amino]-6-methyl-5H,6H,7H-pyrrolo[2,3-c]pyridazin-7-yl}-1,3-thiazole-4-carboxylic acid]	–	120	–	–
Cc1nc(Nc2nnc3c(c2C)CCN3c2nc(C(=O)O)cs2)sc1C [Example 19, 2-{3-[(4,5-Dimethyl-1,3-thiazol-2-yl)amino]-4-methyl-5H,6H,7H-pyrrolo[2,3-c]pyridazin-7-yl}-1,3-thiazole-4-carboxylic acid]	–	3300	–	–
COCCCC1(Cn2ncc(-c3sc(N4CCc5c4nnc(Nc4nc6ccccc6s4)c5C)nc3C(=O)O)c2C)CCCCCCC1 [Example 14, 2-{3-[(1,3-Benzothiazol-2-yl)amino]-4-methyl-5H,6H,7H-pyrrolo[2,3-c]pyridazin-7-yl}-5-(1-{[1-(3-methoxypropyl)cyclooctyl]methyl}-5-methyl-1H-pyrazol-4-yl)-1,3-thiazole-4-carboxylic acid]	3080	5.5	453	–
Cc1c(Nc2nc3ccccc3s2)nnc2c1CCCN2c1cccc(C(=O)O)c1 [Example 26, 3-{3-[(1,3-Benzothiazol-2-yl)amino]-4-methyl-5H,6H,7H,8H-pyrido[2,3-c]pyridazin-8-yl}benzoic acid]	> 15000	15000	≥ 13400	–
Cc1c(Nc2nccs2)nnc2c1CCN2c1nc(C(=O)O)cs1 [Example 18, 2-{4-Methyl-3-[(1,3-thiazol-2-yl)amino]-5H,6H,7H-pyrrolo[2,3-c]pyridazin-7-yl}-1,3-thiazole-4-carboxylic acid]	–	5000	–	–
Cc1c(Nc2nc3ccccc3s2)nnc2c1CCCCN2c1ccc(-c2cnn(CC34CC5CC(CC(C5)C3)C4)c2C)c(C(=O)O)n1 [Example 29, 3-{1-[(Adamantan-1-yl)methyl]-5-methyl-1H-pyrazol-4-yl}-6-{3-[(1,3-benzothiazol-2-yl)amino]-4-methyl-5H,6H,7H,8H,9H-pyridazino[3,4-b]azepin-9-yl}pyridine-2-carboxylic acid]	–	9.6	–	–
O=C(O)c1csc(N2CCCc3cc(Nc4nc5ccccc5s4)ccc32)n1 [Example 1, 2-{6-[(1,3-Benzothiazol-2-yl)amino]-1,2,3,4-tetrahydroquinolin-1-yl}-1,3-thiazole-4-carboxylic acid]	–	37000	–	–
O=C(O)c1csc(-n2ccc3cc(Nc4nc5ccccc5s4)cnc32)n1 [Example 6, 2-{5-[(1,3-Benzothiazol-2-yl)amino]-1H-pyrrolo[2,3-b]pyridin-1-yl}-1,3-thiazole-4-carboxylic acid]	–	> 10000	–	–
COCCCC1(Cn2ncc(-c3sc(N4CCc5c4nnc(Nc4nc6ccccc6s4)c5C)nc3C(=O)O)c2C)CCCCC1 [Example 17, 2-{3-[(1,3-Benzothiazol-2-yl)amino]-4-methyl-5H,6H,7H-pyrrolo[2,3-c]pyridazin-7-yl}-5-(1-{[1-(3-methoxypropyl)cyclohexyl]methyl}-5-methyl-1H-pyrazol-4-yl)-1,3-thiazole-4-carboxylic acid]	393	2	128	–

Continued, values first:

IC50 [1] [nM]	Ki [2] [nM]	IC50 [3] [nM]	Ki [4] [pM]	SMILES
> 15000	1600	4230	–	Cc1c(Nc2nc3ccccc3s2)nnc2c1CCCN2c1cccc(C(=O)O)n1 [Example 21, 6-{3-[(1,3-Benzothiazol-2-yl)amino]-4-methyl-5H,6H,7H,8H-pyrido[2,3-c]pyridazin-8-yl}pyridine-2-carboxylic acid]
> 15000	210	> 15000	–	O=C(O)c1csc(N2CCc3cc(Nc4nc5ccccc5s4)nnc32)n1 [Example 10, 2-{3-[(1,3-Benzothiazol-2-yl)amino]-5H,6H,7H-pyrrolo[2,3-c]pyridazin-7-yl}-1,3-thiazole-4-carboxylic acid]
3100	85	162	–	Cc1c(Nc2nc3ccccc3s2)nnc2c1CCN2c1cccc(C(=O)O)n1 [Example 20, 6-{3-[(1,3-Benzothiazol-2-yl)amino]-4-methyl-5H,6H,7H-pyrrolo[2,3-c]pyridazin-7-yl}pyridine-2-carboxylic acid]
3140	14	880	–	O=C(O)c1csc(N2CCc3c2nnc(Nc2nc4ccccc4s2)c3C2CC2)n1 [Example 28, 2-{3-[(1,3-Benzothiazol-2-yl)amino]-4-cyclopropyl-5H,6H,7H-pyrrolo[2,3-c]pyridazin-7-yl}-1,3-thiazole-4-carboxylic acid]
–	30	–	–	O=C(O)c1csc(N2CCCc3cc(Nc4nc5ccccc5s4)nnc32)n1 [Example 12, 2-{3-[(1,3-Benzothiazol-2-yl)amino]-5H,6H,7H,8H-pyrido[2,3-c]pyridazin-8-yl}-1,3-thiazole-4-carboxylic acid]
–	120	–	–	Cc1c(Nc2nc3ccccc3s2)nnc2c1CCCCN2c1nc(C(=O)O)cs1 [Example 25, 2-{3-[(1,3-Benzothiazol-2-yl)amino]-4-methyl-5H,6H,7H,8H,9H-pyridazino[3,4-b]azepin-9-yl}-1,3-thiazole-4-carboxylic acid]
2600	2.3	1050	–	Cc1c(Nc2nc3ccccc3s2)nnc2c1CCCN2c1nc(C(=O)O)cs1 [Example 15, 2-{3-[(1,3-Benzothiazol-2-yl)amino]-4-methyl-5H,6H,7H,8H-pyrido[2,3-c]pyridazin-8-yl}-1,3-thiazole-4-carboxylic acid]
–	5.5	–	1400	Cc1c(Nc2nc3ccccc3s2)nnc2c1C[C@@H](O)CN2c1nc(C(=O)O)cs1 [Example 33, 2-[(6R)-3-[(1,3-Benzothiazol-2-yl)amino]-6-hydroxy-4-methyl-5H,6H,7H,8H-pyrido[2,3-c]pyridazin-8-yl]-1,3-thiazole-4-carboxylic acid]

From patent US12570648B2, “6,7-dihydro-5H-pyrido[2,3-c]pyridazine derivatives and related compounds as Bcl-xL protein inhibitors and pro-apoptotic agents for treating cancer” (LES LABORATOIRES SERVIER, priority 2019, dated 2026)
